Experimental data from ChEMBL document CHEMBL3638997, “5-alkynyl-pyrimidines” (2013).

Target: Phosphatidylinositol 4,5-bisphosphate 3-kinase catalytic subunit alpha isoform (Homo sapiens, UniProt P42336)
Assay: Filter-Binding-Assay: PI3Kalpha assay described herein provides IC50 values indicating the activity of the compounds inhibiting PI3 kinase alpha activity Inhibition of PI3 kinase is expected to be indicative of activity in treating conditions of excessive or anomalous cell proliferation, such as cancers. See also J. A. Engelman, Nature Reviews Cancer, 2009, 9, 550-562; A. Carnero, Expert Opin. …

Chain of Phosphatidylinositol 4,5-bisphosphate 3-kinase catalytic subunit alpha isoform (P42336 whole entry, canonical isoform): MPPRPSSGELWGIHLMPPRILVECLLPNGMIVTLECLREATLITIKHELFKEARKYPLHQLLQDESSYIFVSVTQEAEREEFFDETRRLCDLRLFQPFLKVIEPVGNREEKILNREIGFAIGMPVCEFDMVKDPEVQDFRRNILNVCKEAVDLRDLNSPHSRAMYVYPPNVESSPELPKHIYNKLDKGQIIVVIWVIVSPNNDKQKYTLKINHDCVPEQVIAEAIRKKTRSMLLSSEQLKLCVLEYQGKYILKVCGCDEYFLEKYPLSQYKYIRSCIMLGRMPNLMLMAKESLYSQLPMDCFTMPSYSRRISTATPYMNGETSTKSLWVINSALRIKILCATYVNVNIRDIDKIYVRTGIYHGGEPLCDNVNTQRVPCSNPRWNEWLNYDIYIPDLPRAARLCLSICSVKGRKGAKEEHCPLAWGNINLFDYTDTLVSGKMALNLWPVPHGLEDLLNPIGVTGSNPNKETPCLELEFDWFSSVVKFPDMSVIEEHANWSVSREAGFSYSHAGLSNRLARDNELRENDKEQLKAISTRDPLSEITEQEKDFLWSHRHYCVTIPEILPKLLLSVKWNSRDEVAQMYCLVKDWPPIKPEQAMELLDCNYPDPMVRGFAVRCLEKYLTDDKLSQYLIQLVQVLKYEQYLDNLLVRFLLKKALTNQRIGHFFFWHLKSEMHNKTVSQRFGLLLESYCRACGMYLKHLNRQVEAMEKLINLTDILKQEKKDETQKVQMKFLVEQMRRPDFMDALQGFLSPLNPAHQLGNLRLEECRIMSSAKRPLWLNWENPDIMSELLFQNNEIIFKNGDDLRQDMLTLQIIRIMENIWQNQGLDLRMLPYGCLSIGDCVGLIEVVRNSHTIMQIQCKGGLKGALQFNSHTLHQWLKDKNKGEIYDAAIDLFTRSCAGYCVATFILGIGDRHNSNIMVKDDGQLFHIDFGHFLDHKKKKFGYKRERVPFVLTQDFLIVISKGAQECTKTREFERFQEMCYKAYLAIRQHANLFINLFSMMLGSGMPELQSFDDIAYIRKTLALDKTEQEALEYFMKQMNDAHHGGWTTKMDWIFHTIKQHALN

Question: How did the IC50 turn out when `CCc1ncnc(N2CCC(O)(CC)CC2)c1C#Cc1ccc(N)nc1` was run?
Answer: The IC50 was 15 nM.
